Laboratory results reported in ChEMBL document CHEMBL1909046, “DrugMatrix in vitro pharmacology data”.

Legend:
[1] = target: Cytochrome P450 2C19 (Homo sapiens, UniProt P33261); conditions: bti-tn-5b1-4; also: in other assays of this panel Not Active means under 50% inhibition at 10 µM
[2] = target: 5-hydroxytryptamine receptor 4 (Cavia porcellus, UniProt O70528); type: cell membranes, Dunkin-Hartley, Striatum, Membrane; also: in other assays of this panel Not Active means under 50% inhibition at 10 µM
Chain of 5-hydroxytryptamine receptor 4 (O70528 whole entry): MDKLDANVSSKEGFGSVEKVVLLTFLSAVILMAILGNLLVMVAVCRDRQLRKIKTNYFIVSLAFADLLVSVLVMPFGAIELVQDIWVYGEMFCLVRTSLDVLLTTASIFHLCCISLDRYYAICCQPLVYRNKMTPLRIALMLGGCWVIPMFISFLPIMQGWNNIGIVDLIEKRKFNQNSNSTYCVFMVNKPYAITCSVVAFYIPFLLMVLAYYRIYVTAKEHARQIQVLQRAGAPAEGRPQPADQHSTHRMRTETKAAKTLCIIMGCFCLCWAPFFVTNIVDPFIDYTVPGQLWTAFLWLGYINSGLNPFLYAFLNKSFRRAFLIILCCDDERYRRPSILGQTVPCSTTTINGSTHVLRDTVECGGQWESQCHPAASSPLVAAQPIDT

[3] = target: T1, Endothelin-1 receptor (Homo sapiens, UniProt P25101); type: cell membranes, CHO-K1, Membrane; conditions: cho-k1; also: in other assays of this panel Not Active means under 50% inhibition at 10 µM
T1 sequence (P25101 whole entry): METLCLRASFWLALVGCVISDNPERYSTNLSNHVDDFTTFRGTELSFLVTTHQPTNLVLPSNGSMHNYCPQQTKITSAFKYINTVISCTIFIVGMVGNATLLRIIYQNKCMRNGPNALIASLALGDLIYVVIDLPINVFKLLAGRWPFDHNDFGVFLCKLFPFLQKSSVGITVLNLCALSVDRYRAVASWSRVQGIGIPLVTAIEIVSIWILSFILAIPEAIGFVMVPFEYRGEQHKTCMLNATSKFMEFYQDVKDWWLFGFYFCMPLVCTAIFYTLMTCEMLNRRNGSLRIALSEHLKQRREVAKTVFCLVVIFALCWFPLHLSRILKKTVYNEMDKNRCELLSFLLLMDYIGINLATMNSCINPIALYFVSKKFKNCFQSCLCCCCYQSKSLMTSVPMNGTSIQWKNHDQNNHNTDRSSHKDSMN

[4] = DRUGMATRIX: Interleukin IL-1 radioligand binding (ligand: [125I] interleukin 1beta); type: cell membranes, Membrane; conditions: nih3t3; Not Active = under 50% inhibition at 10 µM
[5] = target: Voltage-gated inwardly rectifying potassium channel KCNH2 (Homo sapiens, UniProt Q12809); conditions: hek293; also: in other assays of this panel Not Active means under 50% inhibition at 10 µM
Chain of Voltage-gated inwardly rectifying potassium channel KCNH2 (Q12809 whole entry): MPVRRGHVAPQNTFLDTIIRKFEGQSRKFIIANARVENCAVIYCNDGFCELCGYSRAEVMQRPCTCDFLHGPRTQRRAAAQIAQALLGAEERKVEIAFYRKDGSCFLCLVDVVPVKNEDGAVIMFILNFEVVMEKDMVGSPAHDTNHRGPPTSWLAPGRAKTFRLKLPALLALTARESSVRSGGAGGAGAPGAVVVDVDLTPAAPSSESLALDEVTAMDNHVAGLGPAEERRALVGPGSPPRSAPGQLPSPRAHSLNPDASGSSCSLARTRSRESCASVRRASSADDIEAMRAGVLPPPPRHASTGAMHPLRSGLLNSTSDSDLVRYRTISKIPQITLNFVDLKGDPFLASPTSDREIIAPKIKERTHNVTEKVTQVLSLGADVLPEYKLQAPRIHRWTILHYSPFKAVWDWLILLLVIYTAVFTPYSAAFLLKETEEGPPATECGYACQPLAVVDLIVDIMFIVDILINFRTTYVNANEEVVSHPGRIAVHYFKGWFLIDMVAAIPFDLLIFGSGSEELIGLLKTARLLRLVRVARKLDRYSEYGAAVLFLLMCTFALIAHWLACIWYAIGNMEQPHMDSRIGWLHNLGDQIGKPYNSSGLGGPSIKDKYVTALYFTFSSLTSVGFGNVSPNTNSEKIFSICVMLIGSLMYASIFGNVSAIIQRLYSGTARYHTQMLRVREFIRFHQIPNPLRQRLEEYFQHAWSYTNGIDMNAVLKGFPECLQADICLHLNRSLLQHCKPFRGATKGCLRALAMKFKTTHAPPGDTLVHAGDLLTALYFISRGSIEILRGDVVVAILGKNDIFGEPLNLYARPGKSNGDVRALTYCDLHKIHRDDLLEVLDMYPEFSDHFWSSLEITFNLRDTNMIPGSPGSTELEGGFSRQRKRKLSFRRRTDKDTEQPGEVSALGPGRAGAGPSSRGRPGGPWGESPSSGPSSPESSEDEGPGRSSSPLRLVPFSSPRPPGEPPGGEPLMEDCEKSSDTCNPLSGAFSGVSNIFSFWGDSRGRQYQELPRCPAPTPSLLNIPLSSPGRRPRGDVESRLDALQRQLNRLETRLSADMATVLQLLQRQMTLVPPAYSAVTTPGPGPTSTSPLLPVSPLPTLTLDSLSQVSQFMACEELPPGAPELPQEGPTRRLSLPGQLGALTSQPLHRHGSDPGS

[6] = DRUGMATRIX: Purinergic P2X radioligand binding (ligand: [3H] alpha, beta-Methylene-ATP); type: cell membranes, Oryctolagus cuniculus, New Zealand albino, Urinary bladder, Membrane; conditions: Not Active = under 50% inhibition at 10 µM
[7] = target: T2, Vasoactive intestinal polypeptide receptor 1 (Homo sapiens, UniProt P32241); type: cell membranes, Membrane; conditions: ht-29; also: in other assays of this panel Not Active means under 50% inhibition at 10 µM
T2 sequence (P32241 whole entry): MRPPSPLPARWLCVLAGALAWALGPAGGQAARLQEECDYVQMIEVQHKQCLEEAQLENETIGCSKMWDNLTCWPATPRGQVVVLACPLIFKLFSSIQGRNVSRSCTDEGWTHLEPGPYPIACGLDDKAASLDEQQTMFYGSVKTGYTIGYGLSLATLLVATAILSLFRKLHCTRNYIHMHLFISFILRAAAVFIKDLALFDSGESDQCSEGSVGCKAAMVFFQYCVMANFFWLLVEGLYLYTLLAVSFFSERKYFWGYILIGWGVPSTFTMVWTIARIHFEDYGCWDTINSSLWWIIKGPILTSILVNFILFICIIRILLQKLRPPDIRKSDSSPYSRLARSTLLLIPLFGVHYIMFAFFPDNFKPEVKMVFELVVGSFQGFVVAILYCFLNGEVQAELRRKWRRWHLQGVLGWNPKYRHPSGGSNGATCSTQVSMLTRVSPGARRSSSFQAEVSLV

[8] = target: T3, 5-hydroxytryptamine receptor 1A (Rattus norvegicus, UniProt P19327); type: cell membranes, CHO-K1, Membrane; conditions: cho-k1; also: in other assays of this panel Not Active means under 50% inhibition at 10 µM
T3 sequence (P19327 whole entry): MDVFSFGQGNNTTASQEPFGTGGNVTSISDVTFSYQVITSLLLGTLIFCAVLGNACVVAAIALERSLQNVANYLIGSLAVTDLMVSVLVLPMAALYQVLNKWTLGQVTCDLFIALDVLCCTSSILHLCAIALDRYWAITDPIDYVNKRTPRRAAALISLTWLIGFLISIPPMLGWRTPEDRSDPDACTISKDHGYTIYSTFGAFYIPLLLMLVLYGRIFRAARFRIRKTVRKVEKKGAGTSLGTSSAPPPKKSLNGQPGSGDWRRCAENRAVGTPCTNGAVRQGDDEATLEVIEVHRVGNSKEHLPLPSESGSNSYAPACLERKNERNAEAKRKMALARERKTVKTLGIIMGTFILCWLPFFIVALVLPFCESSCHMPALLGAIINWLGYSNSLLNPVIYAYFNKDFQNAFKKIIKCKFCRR

Chain of Cytochrome P450 2C19 (P33261 whole entry): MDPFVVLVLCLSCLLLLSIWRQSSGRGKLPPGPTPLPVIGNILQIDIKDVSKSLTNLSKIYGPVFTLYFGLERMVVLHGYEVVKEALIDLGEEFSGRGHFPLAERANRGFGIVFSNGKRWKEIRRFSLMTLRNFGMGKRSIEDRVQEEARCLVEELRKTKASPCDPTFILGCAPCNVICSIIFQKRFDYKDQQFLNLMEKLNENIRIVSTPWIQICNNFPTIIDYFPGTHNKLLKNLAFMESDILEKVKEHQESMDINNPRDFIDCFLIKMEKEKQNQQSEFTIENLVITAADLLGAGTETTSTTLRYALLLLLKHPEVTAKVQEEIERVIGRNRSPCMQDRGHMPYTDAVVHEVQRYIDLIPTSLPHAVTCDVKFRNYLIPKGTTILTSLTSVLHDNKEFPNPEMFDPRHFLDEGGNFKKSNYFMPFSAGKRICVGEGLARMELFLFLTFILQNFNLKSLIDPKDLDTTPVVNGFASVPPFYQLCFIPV

INSULIN HUMAN
Not Active: IC50 [1] | Ki [1] | IC50 [2] | Ki [2] | IC50 [3] | Ki [3] | IC50 [4] | Ki [4] | IC50 [5] | Ki [5] | IC50 [6] | Ki [6] | IC50 [7] | Ki [7] | IC50 [8] | Ki [8]

POLYVINYL ALCOHOL
Not Active: IC50 [1] | Ki [1] | IC50 [2] | Ki [2] | IC50 [3] | Ki [3] | IC50 [4] | Ki [4] | IC50 [5] | Ki [5] | IC50 [6] | Ki [6] | IC50 [7] | Ki [7] | IC50 [8] | Ki [8]
